Data published in ChEMBL document CHEMBL5260850, “The exploration of aza-quinolines as hematopoietic prostaglandin D synthase (H-PGDS) inhibitors with low brain exposure” (Bioorg Med Chem, 2020).
Converted amounts (≈) assume the structure as drawn.

Assays:
[1] = target: T1, Hematopoietic prostaglandin D synthase (Rattus norvegicus, UniProt O35543); assay: Inhibition of H-PGDS in rat RBL cells assessed as reduction in A23187-induced PGD2 production pretreated for 30 mins followed by A23187 addition for 30 mins by RapidFire Mass spectrometry; format: cell-based
T1 sequence (O35543 whole entry): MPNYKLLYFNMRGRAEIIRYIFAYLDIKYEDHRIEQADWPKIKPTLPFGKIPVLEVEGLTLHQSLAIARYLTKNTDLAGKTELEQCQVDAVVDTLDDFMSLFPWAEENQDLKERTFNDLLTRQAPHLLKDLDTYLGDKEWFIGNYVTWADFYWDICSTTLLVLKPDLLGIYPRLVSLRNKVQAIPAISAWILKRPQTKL

[2] = target: Hematopoietic prostaglandin D synthase (Homo sapiens, UniProt O60760); assay: Inhibition of human H-PGDS expressed in Escherichia coli BL21 DE3 cells assessed as reduction in PGD2 production using PGH2 as substrate by RapidFire High Throughput Mass spectrometry
Albumin = Albumin (Homo sapiens, UniProt P02768); assay: Protein binding in human serum albumin by HPLC analysis; format: ADME, cell-free; conditions: read-out: PB (converted)
[3] = Half life in mouse liver microsomes pretreated for 5 mins followed by incubation with NADP for 30 secs and measured upto 45 mins by LC-MS/MS analysis; format: ADME, Microsome; conditions: time 3030 sec
[4] = Dose normalized AUC in mouse at 3 mg/kg, po; format: ADME, organism-based; design: unit not given here; conditions: in vivo
[5] = Apparent permeability, Papp of the compound at pH 7.4 incubated for 3 hrs by AMP based liquid chromatography; format: ADME; conditions: not told
[6] = Solubility of the compound in FaSSIF at pH 6.5 measured after 4 hrs by HPLC-UV analysis; format: ADME
[7] = Dissociation constant, pKa of the compound by UV spectroscopy or potentiometric analysis; format: physicochemical

Sequence of Hematopoietic prostaglandin D synthase (Homo sapiens, UniProt O60760) (O60760 whole entry): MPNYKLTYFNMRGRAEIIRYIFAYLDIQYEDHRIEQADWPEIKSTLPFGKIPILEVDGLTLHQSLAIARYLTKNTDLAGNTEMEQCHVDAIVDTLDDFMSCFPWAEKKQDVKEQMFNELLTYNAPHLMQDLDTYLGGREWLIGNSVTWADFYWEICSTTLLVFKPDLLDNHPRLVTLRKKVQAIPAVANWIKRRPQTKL
Sequence of Albumin (P02768 whole entry): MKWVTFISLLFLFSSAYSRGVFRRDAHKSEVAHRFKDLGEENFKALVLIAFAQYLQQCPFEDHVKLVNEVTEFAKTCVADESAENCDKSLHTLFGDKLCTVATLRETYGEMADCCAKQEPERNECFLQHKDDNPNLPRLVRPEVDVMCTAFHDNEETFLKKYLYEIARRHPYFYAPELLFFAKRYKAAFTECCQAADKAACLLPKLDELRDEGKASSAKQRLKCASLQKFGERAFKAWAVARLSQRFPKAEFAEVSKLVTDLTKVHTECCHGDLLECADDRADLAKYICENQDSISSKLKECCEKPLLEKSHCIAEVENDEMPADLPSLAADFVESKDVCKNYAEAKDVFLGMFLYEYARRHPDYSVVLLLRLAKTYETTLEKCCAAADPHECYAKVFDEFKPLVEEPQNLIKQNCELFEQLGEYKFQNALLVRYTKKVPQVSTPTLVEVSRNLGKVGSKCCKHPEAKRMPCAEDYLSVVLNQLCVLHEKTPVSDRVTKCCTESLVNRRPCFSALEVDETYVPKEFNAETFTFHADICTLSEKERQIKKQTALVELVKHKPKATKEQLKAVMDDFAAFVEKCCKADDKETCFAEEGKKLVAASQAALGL

SMILES	EC50 [1]	IC50 [2]	fraction unbound (Albumin)	half-life [3]	AUC/dose [4]	Papp at 3 h [5]	solubility at 4 h [6]	pKa [7]	EC50 ([1]; rbl)
CC(C)(O)[C@H]1CC[C@H](NC(=O)c2cnc3nc(C4CCC4)ccc3c2)CC1	120 nM	10 nM							
O=C(N[C@H]1CC[C@H](N2CC(F)(F)C2)CC1)c1cnc2nc(C3CC3)ccc2c1	50 nM	14 nM							
C[C@]1(O)C[C@H](NC(=O)c2cnc3nc(C4CC4)ccc3c2)C1	7400 nM	300 nM							
C[C@]1(O)C[C@@H](NC(=O)c2cnc3cc(C4CC4)ncc3c2)C1	910 nM	290 nM							
CC(C)c1ccc2cc(C(=O)N[C@H]3CC[C@H](C(C)(C)O)CC3)cnc2n1	64 nM	8.5 nM							
COc1nc2ncc(C(=O)N[C@H]3CC[C@H](C(C)(C)O)CC3)cc2cc1Cl	22 nM	6.6 nM							
C[C@]1(O)C[C@@H](NC(=O)c2cnc3nc(N4CCC4)ccc3c2)C1	17000 nM	140 nM							
O=C(N[C@H]1CC[C@H](N2CC(F)(F)C2)CC1)c1cnc2cc(C3CC3)ncc2c1	88 nM	14 nM							
CC(C)(O)[C@H]1CC[C@H](NC(=O)c2cnc3nc(C4CC4)c(Cl)cc3c2)CC1	5.2 nM	4.7 nM							
CC(C)(O)[C@H]1CC[C@H](NC(=O)c2cnc3nc(NCC(F)(F)F)ccc3c2)CC1	9600 nM	690 nM							
C[C@]1(O)C[C@H](NC(=O)c2cnc3nc(C4CC4)c(Cl)cc3c2)C1	190 nM	6.4 nM	0.14	> 3 h	362	15 ×10⁻⁶ cm/s	700 µg/mL (≈ 2110 µM)		
C[C@H]1CCN1c1nc2ncc(C(=O)N[C@H]3C[C@H](C(C)(C)O)C3)cc2cc1Cl	< 2.5 nM	3.1 nM							
COc1ccc2nc(C(=O)N[C@H]3CC[C@H](C(C)(C)O)CC3)cnc2c1	3200 nM	490 nM						< 2	
C[C@@H]1CCN1c1ccc2cc(C(=O)N[C@H]3CC[C@H](C(C)(C)O)CC3)cnc2n1	3000 nM	310 nM							
CC(N[C@H]1CC[C@H](NC(=O)c2cnc3nc(C4CC4)ccc3c2)CC1)C(F)F (mixture of isomers)	28 nM	11 nM	0.18	> 3 h	681	17 ×10⁻⁶ cm/s	> 1000 µg/mL		
COc1ccc2c(c1)N=CN(C(=O)N[C@H]1CC[C@H](C(C)(C)O)CC1)C2	4300 nM	890 nM						4.31	
CC(C)(O)[C@H]1CC[C@H](NC(=O)c2cnc3nc(OCC(F)(F)F)ccc3c2)CC1	1100 nM	350 nM							
O=C(N[C@H]1CC[C@H](N[C@H](CO)C(F)(F)F)CC1)c1cnc2cc(C3CC3)ncc2c1	310 nM	31 nM		> 3 h	693	18 ×10⁻⁶ cm/s	100 µg/mL (≈ 237 µM)		
C[C@H]1CCN1c1cc2ncc(C(=O)N[C@H]3CCNC3=O)cc2cn1	260 nM	37 nM	0.44	> 3 h	715	1.4 ×10⁻⁶ cm/s	630 µg/mL (≈ 1940 µM)		
O=C(N[C@H]1CCNC1=O)c1cnc2cc(C3CC3)ncc2c1	260 nM	110 nM	0.57	2.45 h	262	3 ×10⁻⁶ cm/s	430 µg/mL (≈ 1450 µM)		
COc1cnc2cc(C(=O)N[C@H]3CC[C@H](C(C)(C)O)CC3)cnc2c1	740 nM	180 nM						< 2	
C[C@H]1CCN1c1nc2ncc(C(=O)N[C@H]3CC[C@](C)(O)CC3)cc2cc1Cl	3.7 nM	4.6 nM	0.13	> 3 h	132	11 ×10⁻⁶ cm/s	740 µg/mL (≈ 1900 µM)		
C[C@H]1CCN1c1nc2ncc(C(=O)N[C@H]3C[C@](C)(O)C3)cc2cc1Cl	4.7 nM	5 nM							
C[C@]1(O)C[C@@H](NC(=O)c2cnc3nc(C4CC4)ccc3c2)C1	1300 nM	160 nM							
CC(C)(O)[C@H]1C[C@H](NC(=O)c2cnc3nc(C4CC4)ccc3c2)C1	280 nM	36 nM	0.26	> 3 h	77.5		100 µg/mL (≈ 307 µM)		
CC(C)(O)[C@H]1CC[C@H](NC(=O)c2cnc3ccccc3c2)CC1	30000 nM	1800 nM						3.02	

SMILES	EC50 [1]	IC50 [2]	fraction unbound (Albumin)	half-life [3]	AUC/dose [4]	Papp at 3 h [5]	solubility at 4 h [6]	pKa [7]	EC50 ([1]; rbl)
C[C@@H]1CCN1c1cc2ncc(C(=O)N[C@H]3CC[C@H](C(C)(C)O)CC3)cc2cn1	450 nM	160 nM							
CC(C)(O)[C@H]1CC[C@H](NC(=O)c2cnc3cnccc3c2)CC1	39000 nM	7700 nM						2.74	
O=C(N[C@H]1CCNC1=O)c1cnc2nc(C3CC3)c(Cl)cc2c1	14 nM	4.6 nM	0.19	> 3 h	252	3 ×10⁻⁶ cm/s	120 µg/mL (≈ 363 µM)		
CC(C)(O)[C@H]1CC[C@H](NC(=O)c2cnc3nc(C4CC4)ncc3c2)CC1	170 nM	6.4 nM	0.36	> 3 h	204	2.2 ×10⁻⁶ cm/s			
C[C@]1(O)C[C@@H](NC(=O)c2cnc3nc(C4CC4)c(Cl)cc3c2)C1	54 nM	7.1 nM	0.13	> 3 h	152	22 ×10⁻⁶ cm/s	31 µg/mL (≈ 93.4 µM)		
O=C(N[C@H]1CCNC1=O)c1cnc2nc(N3CCC3)ccc2c1	6000 nM	71 nM							
CC(C)(O)[C@]12C[C@@](NC(=O)c3cnc4nc(C5CC5)ccc4c3)(C1)C2	230 nM	17 nM	0.31	> 3 h	285	3.4 ×10⁻⁶ cm/s	400 µg/mL (≈ 1190 µM)		
CC(C)(O)[C@H]1CC[C@H](NC(=O)c2cnc3nc(N4CCC4)ncc3c2)CC1	340 nM	12 nM	0.46	2.43 h	23.4	< 1 ×10⁻⁶ cm/s	210 µg/mL (≈ 568 µM)		
CC(C)(O)[C@H]1C[C@H](NC(=O)c2cnc3cc(C4CC4)ncc3c2)C1	280 nM	65 nM	0.24	> 3 h	45.3	13 ×10⁻⁶ cm/s	280 µg/mL (≈ 860 µM)		
C[C@H]1CCN1c1nc2ncc(C(=O)N[C@H]3CC[C@H](C(C)(C)O)CC3)cc2cc1Cl	3.9 nM	3.8 nM							
COc1ncc2cc(C(=O)N[C@H]3CC[C@H](C(C)(C)O)CC3)cnc2n1	2000 nM	140 nM						< 2	
C[C@H]1CCN1c1nc2ncc(C(=O)N[C@H]3C[C@@](C)(O)C3)cc2cc1Cl	< 2.5 nM	5 nM							
C[C@H]1CCN1c1nc2ncc(C(=O)N[C@H]3CCNC3=O)cc2cc1Cl	3.8 nM	5.1 nM	0.19	> 3 h	86.2	< 0.3 ×10⁻⁶ cm/s	> 1000 µg/mL		
CC(C)(O)[C@H]1CC[C@H](NC(=O)c2cnc3nc(N4CCC4)c(Cl)cc3c2)CC1	3.9 nM	2.4 nM							
CC(C)(O)[C@H]1C[C@H](NC(=O)c2cnc3nc(C4CC4)c(Cl)cc3c2)C1	11 nM	3.9 nM	0.12	> 3 h	45.2	28 ×10⁻⁶ cm/s	46 µg/mL (≈ 128 µM)		
COc1ccc2cc(C(=O)N[C@H]3CC[C@H](C(C)(C)O)CC3)nnc2c1	> 50000 nM	7900 nM						< 2	
CC(C)(O)C1CC2(CC(NC(=O)c3cnc4nc(C5CC5)ccc4c3)C2)C1 (configuration not stated)		4.9 nM	0.14	> 3 h	441	5.4 ×10⁻⁶ cm/s	34 µg/mL (≈ 93 µM)		29 nM
O=C(N[C@H]1CCNC1=O)c1cnc2nc(C3CC3)ccc2c1	640 nM	44 nM							
CC(C)(O)[C@]12C[C@@](NC(=O)c3cnc4cc(C5CC5)ncc4c3)(C1)C2	210 nM	38 nM							
CC(C)(O)[C@H]1CC[C@H](NC(=O)c2cnc3nc(NCC(F)F)ccc3c2)CC1	12000 nM	150 nM							
CC(C)(O)[C@H]1CC2(C[C@H](NC(=O)c3cnc4nc(C5CC5)ccc4c3)C2)C1 (some centres not stated)	32 nM	3.9 nM	0.14	> 3 h	477	4.5 ×10⁻⁶ cm/s	35 µg/mL (≈ 95.8 µM)		
C[C@H]1CCN1c1cc2ncc(C(=O)N[C@H]3CC[C@H](C(C)(C)O)CC3)cc2cn1	50 nM	4.8 nM							
CC(C)(O)[C@H]1CC[C@H](NC(=O)c2cnc3nc(N4CC(F)C4)ccc3c2)CC1	1000 nM	13 nM							
COc1ccc2cc(C(=O)N[C@H]3CC[C@H](C(C)(C)O)CC3)ccc2c1	> 50000 nM	1300 nM							
COc1ccc2cc(C(=O)N[C@H]3CC[C@H](C(C)(C)O)CC3)cnc2c1	100 nM							3.59	
O=C(N[C@H]1CC[C@H](N2CC(F)C2)CC1)c1cnc2cc(C3CC3)ncc2c1	280 nM	35 nM		> 3 h	358	27 ×10⁻⁶ cm/s	> 1000 µg/mL		
